Measurements: US10954188B2, “Isotope-enriched 3-amino-1-propanesulfonic acid derivatives and uses thereof” (RISEN (SUZHOU) PHARMA TECH CO., LTD., priority 2017, dated 2021)
Entries after “also recorded” stand apart in the source; their conditions may differ. Counter-ions that a name gives are not always drawn.

Columns and labels:
[1] = Pharmacokinetic study in C57Bl6 mice; type: in vivo; set-up: AUC(0-t): concentration or dose not given beside the values; conditions: mouse, oral gavage, plasma, prodrug; for AUC(0-t): read-out: Prodrug AUCt; for half-life: read-out: Prodrug T1/2 (converted)
Procedure: (§1) Forty-two male ICR mice, body-weight of 19 to 21 g, are randomized into 7 groups. The animals are administered with an aqueous solution of a test compound by oral gavage. Blood samples are collected into tubes pre-loaded with heparin anticoagulating agent, at time 0.167, 0.5, 1, 2, 4, 8, and 12 h after administration. Blood samples are centrifuged, and plasma samples are isolated for analysis of the test compound (including compounds administered, metabolites, and/or prodrugs). A 400 μL blood sample is collected from each animal, and then the animal is put to sleep with barbiturate anesthesia; perfusion is performed (through the main vein of the heart) with saline at a rate of 5 mL/min., for 6 min. The brain is collected and kept at −40° C. until the sample is analyzed. The protein in the plasma is precipitated and the analytical sample is analyzed on an AB4000-Q-Trap UPLC-MS/MS instrument.
Pharmacokinetic studies were performed in C57B16 mice. The experiments were done using the same protocol described in Example 20. For each compound, 42 animals were used (6 animals per time point, and 7 time points distributed at 10 min, 0.5, 1, 2, 4, 8 and 12 h).

[2] = Compound stability in whole mouse blood; type: in vitro ADME; conditions: fresh mouse blood, initial concentration 1.44 μM, 37° C., test (parent) compound at 4 h
Procedure: Compounds were also evaluated for stability in whole mouse blood. A sample of test compound in fresh mouse blood (at a concentration of 1.44 μM) was incubated at 37° C. for 4 h. An aliquot of the sample was withdrawn, at time 5 min. and time 4 h, for concentration analysis on a LC-MS/MS instrument after converting the blood sample to an analytical sample employing standard sample preparation procedures. The detailed recovery of the compound was not fully evaluated and optimized. The sample was analyzed for the parent compound and the therapeutic compound.

[3] = Pharmacokinetic study in ICR mice, oral (FIGS. 1 and 2); type: in vivo; conditions: for concentration of metabolite (2-carboxy-1-ethanesulfonic acid) in plasma compared to 3APS (of natural abundance): 0.72 mmol/kg, 2 h; for drug metabolism compared to 3APS (of natural abundance) / plasma drug exposure compared to 3APS (of natural abundance): mole-equivalent dose (0.72 mmol/kg)
Procedure: A compound according to the invention is dissolved in water at a concentration determined by the desired dose and dosing volume for the specific animal to which the compound is to be administered. A calculated volume of dosing solution is administered to the animal (PO, SQ, IP, or IV). A blood sample is collected following administration of the compound at specific time points (such as 10 min., 30 min., 1 h, 2 h, 4 h, 8 h, and 12 h). The blood sample is converted to a plasma sample using standard techniques. A brain sample can also be collected after complete perfusion. The plasma and/or brain samples are analyzed to determine the concentration of relevant compounds (including e.g., administered compounds, therapeutic compounds (e.g., drugs) and metabolites).
as §1

[4] = Compound stability in simulated gastric fluid (SGF); type: in vitro ADME; conditions: 400 μg/mL, 37° C., percentage of initial concentration, LC-MS/MS
Procedure: Compounds were evaluated for stability in simulated gastric fluid (SGF). A solution of a compound in SGF (400 μg/mL) was incubated at 37° C. for 4 h. An aliquot of the sample was withdrawn, at time 0 and time 4 h, for concentration analysis on a LC-MS/MS instrument. The initial concentration (at time 0) of a compound was considered as 1, and the remaining concentration of the compound at 4-h time point was calculated and expressed as the percentage of the initial concentration.

| SMILES | Cmax [1] [ng/mL] | AUC(0-t) [1] [ng·h/mL] | half-life [1] [h] | Compound conc. (μM) at 4 h [2] [µM] | concentration of metabolite (2-carboxy-1-ethanesulfonic acid) in plasma compared to 3APS (of natural abundance) [3] | drug metabolism compared to 3APS (of natural abundance) [3] | plasma drug exposure compared to 3APS (of natural abundance) [3] | Remaining (%) at 4 h [4] | conversion of prodrug to compound 1 in the subject ([3]; plasma) |
| --- | --- | --- | --- | --- | --- | --- | --- | --- | --- |
| [2H]C([2H])(CCS(=O)(=O)O)NC(=O)[C@@H](N)Cc1c[nH]cn1 [Compound 6, 3-((L-histidyl)amino)-3,3-dideuterium-1-propanesulfonic acid hydrochloride] | 9920 | 16600 | 1.4 |  |  |  |  |  |  |
| [2H]C([2H])(N)CCS(=O)(=O)O [Compound 1, 3-amino-3,3-dideuterium-1-propanesulfonic acid] |  |  |  | 0.98 | much lower | delayed drug metabolism; also recorded: delayed metabolic profile | improved plasma drug exposure significantly | (100) % |  |
| N[C@@H](Cc1ccccc1)C(=[18O])NCCCS(=O)(=O)O [Compound 16] | 3840 | 11900 | 1.5 | 0.74 |  |  |  | 96% |  |
| [2H]C([2H])(CCS(=O)(=O)O)NC(=O)[C@@H](N)C(C)C [Compound 4, 3-((L-valyl)amino)-3,3-dideuterium-1-propanesulfonic acid] | 39500 | 38000 | 1.5 | 0.74 | much lower | delayed drug metabolism | improved plasma drug exposure significantly; also recorded: even greater improvement of drug exposure | 107% | converted easily to 1 |
| [2H]C([2H])(CCS(=O)(=O)O)NC(=O)[C@@H](N)CO [Compound 3, 3-(L-serylamino)-3,3,-dideuterium-1-propanesulfonic acid] | 22300 | 44700 | 1.9 |  |  |  |  |  |  |
| C[C@H](N)C(=[18O])NCCCS(=O)(=O)O [Compound 13, 3-((^18O-L-alanyl)amino)-1-propanesulfonic acid] | 672 | 1830 | 0.5 |  |  |  |  |  |  |
| CC(C)[C@H](N)C(=[18O])NCCCS(=O)(=O)O [Compound 15, 3-((^18O-L-valyl)amino)-1-propanesulfonic acid] |  |  |  | 0.78 |  |  |  | 104% |  |
| [2H]C([2H])(CCS(=O)(=O)O)NC(=[18O])[C@@H](N)C(C)C [Compound 29, 3-((^18O-L-valyl)amino)-3,3-dideuterium-1-propanesulfonic acid] |  |  |  | 0.80 |  |  |  |  |  |
| N[C@@H](Cc1c[nH]cn1)C(=[18O])NCCCS(=O)(=O)O [Compound 17, 3-((^18O-L-histidyl)amino)-1-propanesulfonic acid hydrobromide] | 19000 | 14200 | 1.1 | 1.20 |  |  |  | 101% |  |
| [2H]C([2H])(CCS(=O)(=O)O)NC(=O)[C@H](C)N [Compound 2, 3-((L-alanyl)amino)-3,3-dideuterium-1-propanesulfonic acid] | 472 | 348 | 0.6 | 0.18 |  |  |  |  |  |
| [2H]C([2H])(CCS(=O)(=O)O)NC(=O)[C@@H](N)Cc1ccccc1 [Compound 5, 3-((L-phenylalanyl)amino)-3,3-dideuterium-1-propanesulfonic acid] | 1090 | 782 | 0.4 | 0.03 |  |  |  | 99% |  |
